For the assay, the system named is P. falciparum K1 (strain resistant to chloroquine and pyrimethamine), erythrocytic stages. As to the kind of experiment: Plasmodium falciparum in vitro assay, [3H] hypoxanthine incorporation. It is filed as cell-based. Particulars: Plasmodium falciparum, K1, P. falciparum strain K1; [3H] hypoxanthine incorporation; read-out: IC50 (nM) on K1. As to the method:
In Vitro Antimalarial Activity: Plasmodium falciparum In Vitro Assay
In vitro activity against erythrocytic stages of P. falciparum is determined using a [^3H] hypoxanthine incorporation assay. One strain resistant to chloroquine and pyrimethamine (P. falciparum K1) is used in the assays, and all test compounds are compared for activity with the standard drugs chloroquine (sigma C6628) and artemisinin (sigma-36, 159-3). Compounds are diluted in DMSO to 1 mM and added to parasite cultures incubated in RPMI 1640 medium without hypoxanthine, supplemented with HEPES (5.94 g/L), NaHCO3 (2.1 g/L), neomycin (100 U/mL), Albumax (5 g/L) and washed human red cells at 2.5% haematocrit (0.3% parasitaemia). Seven serial doubling dilutions of each compound are prepared in 96-well microtitre plates and incubated in a humidifying atmosphere at 37° C.; 4% CO2, 3% O2, 93% N2.
After 48 h, 50 μl of [3H] hypoxanthine (0.5 μCi) is added to each well of a plate. The plates are incubated for a further 24 h under the same conditions. The plates are then harvested with a Betaplate cell harvester (Wallac) and washed with distilled water. The dried filters are inserted into a plastic foil with 10 mL of scintillation fluid, and counted in a Betaplate liquid scintillation counter. IC50 values are calculated from sigmoidal inhibition curves using Microsoft Excel.
The IC50 is the concentration that inhibits the measured activity by half. `CC(=O)N1CCN(c2ccc(CN(C(=O)C=Cc3ccc(C(F)(F)F)cc3)[C@@H](Cc3ccccc3)C(=O)N(C)CCN(C)Cc3cncnc3)cc2)CC1` [Example 250, (S)-N-[4-(4-Acetyl-piperazin-1-yl)-benzyl]-N-(1-{methyl-[2-(methyl-pyrimidin-5-ylmethyl-amino)-ethyl]-carbamoyl}-2-phenyl-ethyl)-3-(4-trifluoromethyl-phenyl)-acrylamide]: the concentration for half-maximal inhibition (IC50) is 27 nM.

Regarding `Cc1ccc(C=CC(=O)N(Cc2ccc(N3CCOCC3)nc2)[C@@H](Cc2ccccc2)C(=O)N2CCC(Cc3ccccc3)CC2)cc1` [Example 146, (S)-N-[1-Benzyl-2-(4-benzyl-piperidin-1-yl)-2-oxo-ethyl]-N-(6-morpholin-4-yl-pyridin-3-ylmethyl)-3-p-tolyl-acrylamide], the IC50 was 9 nM.

Consider `CN(CCN(C)C(=O)[C@H](Cc1ccccc1)N(Cc1ccc(-c2ccccn2)cc1)C(=O)C=Cc1ccc(C(F)(F)F)cc1)Cc1ccc(C(F)(F)F)nc1` [Example 230, (S)-N-[1-(Methyl-{2-[methyl-(6-trifluoromethyl-pyridin-3-ylmethyl)-amino]-ethyl}-carbamoyl)-2-phenyl-ethyl]-N-(4-pyridin-2-yl-benzyl)-3-(4-trifluoromethyl-phenyl)-acrylamide], for which the 50% inhibitory concentration (IC50) came out at 10 nM.

Regarding `CCOCCN(C)C(=O)[C@H](Cc1ccccc1)N(Cc1ccc(N2CCOCC2)cc1)C(=O)C=Cc1ccc(C(F)(F)F)cc1` [Example 192, (S)-N-{1-[(2-Ethoxy-ethyl)-methyl-carbamoyl]-2-phenyl-ethyl}-N-(4-morpholin-4-yl-benzyl)-3-(4-trifluoromethyl-phenyl)-acrylamide], the half-inhibitory concentration (IC50) is 19 nM.

For the molecule `CN(CCN(C)C(=O)[C@H](Cc1ccccc1)N(Cc1ccc(-c2ccccn2)cc1)C(=O)C=Cc1ccc(C(F)(F)F)cc1)Cc1ccccc1` [Example 220, (S)-N-(1-{[2-(Benzyl-methyl-amino)-ethyl]-methyl-carbamoyl}-2-phenyl-ethyl)-N-(4-pyridin-2-yl-benzyl)-3-(4-trifluoromethyl-phenyl)-acrylamide], the half-inhibitory concentration (IC50) came out at 29 nM.

For `CN(CCN(C)C(=O)[C@H](Cc1ccccc1)N(Cc1ccc(N2CCOCC2)cc1)C(=O)C=Cc1ccc(C(F)(F)F)cc1)Cc1cccc(O)c1` [Example 258, (S)-N-[1-({2-[(3-Hydroxy-benzyl)-methyl-amino]-ethyl}-methyl-carbamoyl)-2-phenyl-ethyl]-N-(4-morpholin-4-yl-benzyl)-3-(4-trifluoromethyl-phenyl)-acrylamide], the IC50 was found to be 43 nM.

`COCCN(C)C(=O)C(CN1CCCC1)N(Cc1ccc(-c2ccccn2)cc1)C(=O)C=Cc1ccc(C(F)(F)F)cc1` (racemic) [Example 280]: the concentration for half-maximal inhibition (IC50) is 219 nM.

Take `COCCN(C)C(=O)[C@H](Cc1ccccc1)N(Cc1ccc(-c2cccnc2)cc1)C(=O)C=Cc1nc(C)oc1C` [Example 133, (S)-3-(2,5-Dimethyl-oxazol-4-yl)-N-{1-[(2-methoxy-ethyl)-methyl-carbamoyl]-2-phenyl-ethyl}-N-(4-pyridin-3-yl-benzyl)-acrylamide]: the half-inhibitory concentration (IC50) was found to be 82 nM.

In the case of `CC(=O)N1CCN(c2ccc(CN(C(=O)C=Cc3ccc(C(F)(F)F)cn3)[C@@H](Cc3ccccc3)C(=O)N3CCC(N(C)C)CC3)cc2)CC1` [Example 35, (S)-N-[4-(4-Acetyl-piperazin-1-yl)-benzyl]-N-[1-benzyl-2-(4-dimethylamino-piperidin-1-yl)-2-oxo-ethyl]-3-(5-trifluoromethyl-pyridin-2-yl)-acrylamide], the concentration for half-maximal inhibition (IC50) was 317 nM.

Regarding `CC(=O)N1CCN(c2ccc(CN(C(=O)C=Cc3ccc(C(F)(F)F)cc3)[C@@H](Cc3ccccc3)C(=O)N(C)CCOCc3cccc(C#N)c3)cc2)CC1` [Example 185, (S)-N-[4-(4-Acetyl-piperazin-1-yl)-benzyl]-N-(1-{[2-(3-cyano-benzyloxy)-ethyl]-methyl-carbamoyl}-2-phenyl-ethyl)-3-(4-trifluoromethyl-phenyl)-acrylamide, formic acid], the half-maximal inhibitory concentration (IC50) amounted to 19 nM.

With `COCCN(C)C(=O)[C@H](Cc1ccccc1)N(Cc1ccc(-c2ccncc2)cc1)C(=O)C=Cc1sc(C)nc1C` [Example 93, (S)-3-(2,4-Dimethyl-thiazol-5-yl)-N-{1-[(2-methoxy-ethyl)-methyl-carbamoyl]-2-phenyl-ethyl}-N-(4-pyridin-4-yl-benzyl)-acrylamide], the concentration for half-maximal inhibition (IC50) amounted to 13 nM.

`CN(CCN(C)C(=O)[C@H](Cc1ccccc1)N(Cc1ccc(-c2ccccn2)cc1)C(=O)C=Cc1ccc(C(F)(F)F)cc1)Cc1ccoc1` [Example 222, (S)-N-(1-{[2-(Furan-3-ylmethyl-methyl-amino)-ethyl]-methyl-carbamoyl}-2-phenyl-ethyl)-N-(4-pyridin-2-yl-benzyl)-3-(4-trifluoromethyl-phenyl)-acrylamide]: the IC50 was determined as 13 nM.

In the case of `CN(C)[C@@H]1CCN(C(=O)[C@H](Cc2ccccc2)N(Cc2ccc(-c3ccccn3)cc2)C(=O)C=Cc2ccc(C(F)(F)F)nc2)C1` [Example 55, N-[(S)-1-Benzyl-2-((R)-3-dimethylamino-pyrrolidin-1-yl)-2-oxo-ethyl]-N-(4-pyridin-2-yl-benzyl)-3-(6-trifluoromethyl-pyridin-3-yl)-acrylamide], the IC50 came to 65 nM.

Regarding `CN(CCN(C)C(=O)[C@H](Cc1ccccc1)N(Cc1ccc(-c2ccccn2)cc1)C(=O)C=Cc1ccc(C(F)(F)F)cc1)Cc1ccc(Cl)s1` [Example 226, (S)-N-[1-({2-[(5-Chloro-thiophen-2-ylmethyl)-methyl-amino]-ethyl}-methyl-carbamoyl)-2-phenyl-ethyl]-N-(4-pyridin-2-yl-benzyl)-3-(4-trifluoromethyl-phenyl)-acrylamide], the 50% inhibitory concentration (IC50) came out at 75 nM.

For `CN(CCN(C)C(=O)[C@H](Cc1ccccc1)N(Cc1ccc(-c2ccccn2)cc1)C(=O)C=Cc1ccc(C(F)(F)F)cc1)Cc1ccco1` [Example 223, (S)-N-(1-{[2-(Furan-2-ylmethyl-methyl-amino)-ethyl]-methyl-carbamoyl}-2-phenyl-ethyl)-N-(4-pyridin-2-yl-benzyl)-3-(4-trifluoromethyl-phenyl)-acrylamide], the IC50 came out at 25 nM.

On to `COCCN(C)C(=O)[C@H](Cc1ccccc1)N(Cc1ccc(-c2cncnc2)cc1)C(=O)C=Cc1cnc(OC)nc1` [Example 129, (S)-N-{1-[(2-Methoxy-ethyl)-methyl-carbamoyl]-2-phenyl-ethyl}-3-(2-methoxy-pyrimidin-5-yl)-N-(4-pyrimidin-5-yl-benzyl)-acrylamide], for which the concentration for half-maximal inhibition (IC50) was 19 nM.

Turning to `CN(C)CCN(Cc1ccccc1)C(=O)[C@H](Cc1ccccc1)N(Cc1ccc(-c2ccccn2)cc1)C(=O)C=Cc1ccc(C(F)(F)F)cc1` [Example 174], the IC50 was 430 nM.

With `CCOCCN(C)C(=O)[C@H](Cc1ccccc1)N(Cc1ccc(N2CCN(C(C)=O)CC2)cc1)C(=O)C=Cc1ccc(C(F)(F)F)cc1` [Example 193, (S)-N-[4-(4-Acetyl-piperazin-1-yl)-benzyl]-N-{1-[(2-ethoxy-ethyl)-methyl-carbamoyl]-2-phenyl-ethyl}-3-(4-trifluoromethyl-phenyl)-acrylamide], the IC50 amounted to 20 nM.

For `COCCN(C)C(=O)[C@H](Cc1ccccc1)N(Cc1ccc(N2CCN(C(C)=O)CC2)cc1)C(=O)C=Cc1csc(C)n1` [Example 108, (S)-N-[4-(4-Acetyl-piperazin-1-yl)-benzyl]-N-{1-[(2-methoxy-ethyl)-methyl-carbamoyl]-2-phenyl-ethyl}-3-(2-methyl-thiazol-4-yl)-acrylamide], the IC50 stood at 225 nM.

Regarding `CCN(CC)c1ccc(CN(C)CCN(C)C(=O)[C@H](Cc2ccccc2)N(Cc2ccc(N3CCOCC3)cc2)C(=O)C=Cc2ccc(C(F)(F)F)cc2)cc1` [Example 257, (S)-N-[1-({2-[(4-Diethylamino-benzyl)-methyl-amino]-ethyl}-methyl-carbamoyl)-2-phenyl-ethyl]-N-(4-morpholin-4-yl-benzyl)-3-(4-trifluoromethyl-phenyl)-acrylamide], the IC50 was 65 nM.

On to `COCCN(C)C(=O)[C@H](Cc1ccccc1)N(Cc1ccc(-c2cncnc2)cc1)C(=O)C=Cc1csc(C)n1` [Example 122, (S)-N-{1-[(2-Methoxy-ethyl)-methyl-carbamoyl]-2-phenyl-ethyl}-3-(2-methyl-thiazol-4-yl)-N-(4-pyrimidin-5-yl-benzyl)-acrylamide], for which the IC50 was found to be 156 nM.

For `CN(C)C1CCN(C(=O)[C@H](Cc2ccccc2)N(Cc2ccc(-c3cncnc3)cc2)C(=O)C=Cc2ccc(Cl)cn2)CC1` [Example 39, (S)-N-[1-Benzyl-2-(4-dimethylamino-piperidin-1-yl)-2-oxo-ethyl]-3-(5-chloro-pyridin-2-yl)-N-(4-pyrimidin-5-yl-benzyl)-acrylamide], the concentration for half-maximal inhibition (IC50) was 170 nM.

As to `COCCN(C)C(=O)[C@H](Cc1ccccc1)N(Cc1ccc(-c2cccnc2)cc1)C(=O)C=Cc1ccc(Cl)nc1` [Example 134, (S)-3-(6-Chloro-pyridin-3-yl)-N-{1-[(2-methoxy-ethyl)-methyl-carbamoyl]-2-phenyl-ethyl}-N-(4-pyridin-3-yl-benzyl)-acrylamide], the IC50 is 33 nM.

As to `COc1ncc(C=CC(=O)N(Cc2ccc(-c3ccncc3)cc2)[C@@H](Cc2ccccc2)C(=O)N2CCC(N(C)C)CC2)cn1` [Example 32, (S)-N-[1-Benzyl-2-(4-dimethylamino-piperidin-1-yl)-2-oxo-ethyl]-3-(2-methoxy-pyrimidin-5-yl)-N-(4-pyridin-4-yl-benzyl)-acrylamide], the IC50 came to 298 nM.
